Values joined by “and” are separate entries in the source; they are usually repeats but may differ in a detail not shown here. Identical values can stand only once. Active and inactive are the calls of the source. The rule behind the calls is not given here.
System: CRE-bla reporter cells, beta-lactamase FRET, antagonist mode
Assay: inhibition of CRE beta-lactamase reporter – cell-based, beta-lactamase FRET, counter-screen for S1P2 antagonist project, dose response (AID 856)

Row | SMILES | IC50
1 | O=C(Nc1ccc(F)cc1)c1cccs1 | > 40000 nM (inactive)
2 | N#CC(c1cccc(Cl)c1)c1ccc2c(C(F)(F)F)cc(C(F)(F)F)nc2n1 (configuration not stated) | 90 nM
3 | O=C(OCn1ncc(Cl)c(Cl)c1=O)c1ccc(F)cc1 | 3810 nM
4 | CC1=C(C)/C(=N\OS(=O)(=O)c2ccccc2)C=CC1=O | 2650 nM
5 | CCCCCCCCCn1c2c(c(=N)c3c1CCC3)CCC2 | 459 nM
6 | COc1ccc2c(c1)[nH]c1c(N3CCN(Cc4ccc5c(c4)OCO5)CC3)ncnc12 | 1400 nM
7 | Nc1nc(Cl)cc(N2CCC(c3cc(-c4ccc(Cl)cc4)n[nH]3)CC2)n1 | 1490 nM
8 | O=C(Nc1ccc(F)cc1)c1sc2cc(C(F)(F)F)cnc2c1-c1cccs1 | > 50 µM (inactive) and > 40 µM (inactive)
9 | Cc1ccc(NC2=Nc3ccccc3N3C2=Nc2c(c(C)nn2-c2ccccc2)C3c2ccc(O)c(O)c2)cc1 (configuration not stated) | 9980 nM
10 | O=C(O)c1sc2cc(C(F)(F)F)cnc2c1-c1ccco1 | > 40000 nM (inactive)
11 | COC(=O)c1sc2cc(C(F)(F)F)cnc2c1-c1cccs1 | > 40000 nM (inactive)
12 | Cn1c(-c2c(N)n(CCCc3ccccc3)c3nc4ccccc4nc23)nc2ccccc21 | > 50000 nM (inactive)
13 | COc1ccc(NC(=O)/C(Cl)=C(/Cl)S(=O)Cc2ccc(C)cc2)cn1 (configuration not stated) | 752 nM
14 | Cc1n[nH]c(C)c1N1C(=O)c2cccc3c(Br)ccc(c23)C1=O | 5750 nM
15 | CCOC(=O)C1C(=O)CC(C)(O)C(C(=O)OCC)C1c1ccccc1 (configuration not stated) | > 50000 nM (inactive)
16 | COc1ccc(NC(=O)/C(Cl)=C(/Cl)S(=O)(=O)Cc2ccccc2)cn1 | 1560 nM
17 | COC(=O)c1sc2cc(C(F)(F)F)cnc2c1-c1ccccc1 | > 40000 nM (inactive)
18 | Cc1ccc(-n2c(-c3ccc(Br)cc3)c[n+]3c2CCc2ccc4cccnc4c2-3)cc1 | 1490 nM
19 | O=C(Nc1ccc(F)cc1)c1cc(-c2cccs2)nc2ccccc12 | > 40000 nM (inactive)
20 | NC(=O)c1sc2cc(C(F)(F)F)cnc2c1-c1cccs1 | > 40000 nM (inactive)
21 | CCn1c(=O)c(C(=O)Nc2nc3ccccc3[nH]2)c(O)c2ccccc21 | 29100 nM (inactive)
22 | O=C(c1cc(NC(=O)C23CC4CC(CC(C4)C2)C3)cc(NC(=O)C23CC4CC(CC(C4)C2)C3)c1)N1CCCCC1 | 793 nM
23 | O=S(=O)(C/C(=C/CO)S(=O)(=O)c1ccccc1)c1ccccc1 | 3710 nM
24 | O=C(Nc1ccc(F)cc1)c1sc(-c2ccccc2)nc1C(F)(F)F | > 40000 nM (inactive)
25 | COC(=O)c1sc2cc(C(F)(F)F)cnc2c1-c1cccnc1 | > 40000 nM (inactive)
26 | O=C(OCn1ncc(Cl)c(Cl)c1=O)c1ccccc1Cl | 2580 nM

Row | SMILES | IC50
27 | Cc1nc2c(=O)n(C)c(=O)nc-2n(C)n1 | 1270 nM
28 | COc1ccccc1C(=O)Nc1nc(-c2ccc(S(=O)(=O)N3CCOCC3)cc2)cs1 | 2250 nM
29 | O=S1(=O)C=C(Sc2nc3cc(Cl)ccc3o2)c2ccccc21 | 4040 nM
30 | O=C(O)c1sc2cc(C(F)(F)F)cnc2c1-c1cccs1 | > 40000 nM (inactive)
31 | COc1ccc(OC)c(NC(=O)CSc2ncnc3c2cnn3-c2ccccc2Cl)c1 | 640 nM
32 | Cc1ccc(C(=O)OCn2ncc(Cl)c(Cl)c2=O)cc1 | 3080 nM
33 | COc1ccc(CS(=O)(=O)/C(Cl)=C(/Cl)C(=O)Nc2ccc(OC)nc2)cc1 | 1840 nM
34 | Cc1cc(/C=N/n2cnnc2)c(C)n1-c1ccc(OCc2ccc(Cl)cc2)cc1 | 362 nM
35 | CCCCS(=O)(=O)/C=C\C=C/S(=O)(=O)CCCC | 1960 nM
36 | CCN1/C(=C\C=C\C2=[N+](CC)c3ccccc3C2(C)C)C(C)(C)c2ccccc21 | 64 nM
37 | CCN(C(=O)c1ccc(C(C)(C)C)cc1)c1nnc(Cn2nnc3ccccc32)s1 | 1800 nM
38 | Cc1ccc2[nH]c3c(N4CCCCCC4)ncnc3c2c1 | 1810 nM
39 | O=C(Nc1ccc(F)cc1)c1sccc1S(=O)(=O)Cc1cccc(C(F)(F)F)c1 | > 40000 nM (inactive)
40 | CN(C)C=NC(=O)c1sc2cc(C(F)(F)F)cnc2c1-c1cccs1 | > 40000 nM (inactive)
41 | Cc1ccc(-c2nn(-c3ccccc3)cc2/C=N/NC(=O)c2ccc(Br)o2)cc1 | 1820 nM
42 | CC(=O)Nc1cc(OC(C)=O)c2nonc2c1OC(C)=O | 3340 nM
43 | O=C(C#Cc1cccc([N+](=O)[O-])c1)c1ccccc1 | 2270 nM
44 | N#C/C(=C/c1ccc(N2CCCCCC2)o1)c1ccc(F)cc1 | 9670 nM
45 | Cc1ccc2[nH]c3c(N4CCc5ccccc5C4)ncnc3c2c1 | 569 nM
46 | CCCC(=O)N1CCN(c2ccc(NC(=O)c3cc4ccccc4o3)cc2Cl)CC1 | 2950 nM
47 | CN(C)C=NC(=O)c1sc2cc(C(F)(F)F)cnc2c1-c1ccccc1 | > 40000 nM (inactive)
48 | O=C(Nc1ccc(S(=O)(=O)N2CCOCC2)cc1)c1ccc(CN2CCc3ccccc3C2)cc1 | 773 nM
49 | Cn1nc(-c2ccc(Cl)cc2)nc2c(=O)n(C)c(=O)nc1-2 | 634 nM
50 | O=C(c1sc2cc(C(F)(F)F)cnc2c1-c1ccccc1)N1CCOCC1 | > 40000 nM (inactive)
51 | CCCCCCCCNc1ncnc2ccccc12 | 42 nM
52 | FC(F)(F)c1cnc2c(-c3cccs3)c(-c3ncn[nH]3)sc2c1 | > 40000 nM (inactive)

Row | SMILES | IC50
53 | CC1=C/C(=N\OS(=O)(=O)c2ccccc2)C=CC1=O | 2920 nM
54 | COC(=O)C1CN(C#N)N(c2ccc(Cl)cc2)C12c1ccccc1-c1ccccc12 (configuration not stated) | 607 nM
55 | Cn1c2c(c(=O)n(C)c1=O)C(C(F)(F)F)(C(F)(F)F)N=C(c1ccc(Cl)cc1)N2 | 1200 nM
56 | COc1cccc(-c2nnc3n2N=C(C(C)(C)C)CS3)c1 | 1070 nM
57 | Cn1c(-c2c(N)n(C3CCCC3)c3nc4ccccc4nc23)nc2ccccc21 | 2370 nM
58 | CC1=C/C(=N\OS(=O)(=O)c2ccccc2)C(C)=CC1=O | 2390 nM
59 | CCCCCCCCCCn1c2c(c(=N)c3c1CCC3)CCC2 | 333 nM
60 | O=C(O)c1sc2cc(C(F)(F)F)cnc2c1-c1ccccc1 | > 40000 nM (inactive)
61 | CCC(NC(=O)Nc1nnc(C(F)(F)F)s1)(C(F)(F)F)C(F)(F)F | 1260 nM
62 | Cc1nc(-c2cccs2)sc1C(=O)Nc1ccc(F)cc1 | > 40000 nM (inactive)
63 | CCOC(=O)N1CCN(C(=O)CSCC(=O)Nc2nc(-c3ccc(-c4ccccc4)cc3)cs2)CC1 | 873 nM
64 | O=C(NC(Nc1nc2ccc([N+](=O)[O-])cc2s1)(C(F)(F)F)C(F)(F)F)c1ccccc1 | 101 nM
65 | O=C(O)c1sc2cc(C(F)(F)F)cnc2c1-c1cccnc1 | > 40000 nM (inactive)
66 | CCN1/C(=C/c2ccc3ccccc3[n+]2CC)C=Cc2ccccc21 | 1080 nM
67 | O=C(O)c1sc2cc(C(F)(F)F)cnc2c1-c1ccccn1 | > 40000 nM (inactive)
68 | COc1ccc(NC(=O)/C(Cl)=C(/Cl)S(=O)(=O)Cc2ccc(C)cc2)cn1 | 1430 nM
69 | CCN(CC)c1ccc2c(Cl)c(Br)c(=O)oc2c1 | 4370 nM
70 | Cc1nn(-c2ccccc2)c2c1C(c1ccc(O)c(O)c1)N1C(=N2)C(Nc2ccccc2)=Nc2ccccc21 (configuration not stated) | 10500 nM (inactive)
71 | COc1ccc(NC(=O)/C(Cl)=C(/Cl)S(=O)Cc2ccccc2)cn1 (configuration not stated) | 1280 nM
72 | CCOC(=O)c1cnc(-n2nc(C)cc2C)nc1NC1CCCCC1 | 1750 nM
73 | Cc1cccc(NC2=Nc3ccccc3N3C2=Nc2c(c(C)nn2-c2ccccc2)C3c2ccc(O)c(O)c2)c1 (configuration not stated) | 8000 nM
74 | Cc1ccsc1C(=O)Nc1ccc(F)cc1 | > 40000 nM (inactive)
75 | Fc1ccc(-n2nnnc2-c2cnc(-c3cccs3)nc2C(F)(F)F)cc1 | 2920 nM
76 | FC(F)(F)c1cnc2c(-c3cccs3)csc2c1 | > 40000 nM (inactive)
77 | COC(=O)c1sc2cc(C(F)(F)F)cnc2c1-c1ccccn1 | > 40000 nM (inactive)
